{"source": "patent US8822519B2", "about": "“Compound with agitation effect on peroxisome proliferator-activated receptor process for its preparation and use thereof” (Zhejiang Hisun Pharmaceutical Co., Ltd., priority 2008, dated 2014)", "key": {"PPARδ": {"target": "T1, PPARδ (Homo sapiens, UniProt Q03181)", "T1 construct": "expressed in transfected cells; host or cells: HepG2 (human hepatocarcinoma, ATCC)", "T1 sequence (Q03181 1-441)": "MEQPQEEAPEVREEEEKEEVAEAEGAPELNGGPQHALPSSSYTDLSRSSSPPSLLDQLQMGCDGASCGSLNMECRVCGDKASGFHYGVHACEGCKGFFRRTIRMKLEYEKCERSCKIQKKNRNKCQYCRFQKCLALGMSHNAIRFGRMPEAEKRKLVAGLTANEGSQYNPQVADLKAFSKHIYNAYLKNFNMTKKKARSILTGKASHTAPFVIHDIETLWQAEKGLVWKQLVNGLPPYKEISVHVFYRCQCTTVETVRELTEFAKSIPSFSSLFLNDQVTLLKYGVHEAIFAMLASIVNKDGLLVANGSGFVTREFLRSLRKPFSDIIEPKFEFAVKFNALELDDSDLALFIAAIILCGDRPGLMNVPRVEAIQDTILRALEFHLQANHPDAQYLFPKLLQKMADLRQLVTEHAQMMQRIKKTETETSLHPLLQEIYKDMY", "T1 sequence (P19793 1-462 partner)": "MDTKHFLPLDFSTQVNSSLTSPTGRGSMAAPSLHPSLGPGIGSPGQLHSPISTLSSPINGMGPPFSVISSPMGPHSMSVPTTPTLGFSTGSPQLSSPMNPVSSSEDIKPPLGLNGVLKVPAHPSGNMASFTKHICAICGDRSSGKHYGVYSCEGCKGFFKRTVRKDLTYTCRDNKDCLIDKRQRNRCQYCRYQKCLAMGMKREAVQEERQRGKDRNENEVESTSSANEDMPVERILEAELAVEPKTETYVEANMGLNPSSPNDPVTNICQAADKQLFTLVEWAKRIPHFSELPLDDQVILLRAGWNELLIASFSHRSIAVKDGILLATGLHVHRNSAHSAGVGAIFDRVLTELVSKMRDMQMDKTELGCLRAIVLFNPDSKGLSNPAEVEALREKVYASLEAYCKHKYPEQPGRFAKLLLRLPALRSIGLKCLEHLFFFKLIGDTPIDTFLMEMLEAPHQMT", "assay": "In vitro screening of nuclear receptor agonist: luciferase reporter gene assay in HepG2 cells", "assay_type": "cell-based", "conditions": "RXR/PPARδ luciferase reporter gene, 24 h treatment", "excerpt": "Using a reporter gene protocol, the screening model for screening a nuclear receptor agonist in a living cell is designed on a basis of the principal that an activated nuclear receptor can activate transcription of its downstream gene. A reporter gene plasmid is constructed, in which the DNA binding sequence for the nuclear receptor (NRE) is inserted upstream of the luciferase gene, so that the expression of the luciferase gene is placed under the control of the nuclear receptor. Then, the reporter gene plasmid and the nuclear receptor are simultaneously transferred into a cell, and the nuclear receptor is activated when the nuclear receptor agonist is present in the cell culture medium. Then the activated receptor is able to induce the expression of the luciferase gene, while the amount of the luciferase can be determined through its luminous substrate. In this way, the intensity of activation by the compound on the nuclear receptor could be known by observing the luminescence intensity.\nThe specific operation is described as follows:\nThe experiment reagents: the compounds to be tested (20 mM, in DMSO, stored at −80° C.).\nThe hepatocarcinoma cell HepG2 (from ATCC, American Type Culture Collection) was cultured in DMEM medium supplemented with 10% heat-inactivated fetal bovine serum (FBS, Invitogen, Grand Island, N.Y., USA) in a T-75 culture bottle (Greiner, Germany) in a incubator at 37° C., the relative humidity of 100%, and 5% CO2. When the cell culture in the culture bottle reached 80-90% confluency, it was digested with 0.25% Trypsin (with EDTA) for 3 min and inoculated into a 96-well cell culture plate at an inoculating density of 2000 cells/100 μl/well.\nIn the next day, when the cells in the 96-well culture plate grew up to 50-80% confluency, cell transfection was performed. The cell co-transfection system comprised the FuGene6 transfection agent (Roche Molecular Biochemicals, Indianapolis, Ind., U.S.A.) and 60 ng DNA (long of hRXR, 10 ng of pCMV βGal, 10 ng of the nuclear receptor expression plasmid RXR/PPARδ, 30 ng of GFP fluorescence reporter gene plasmid, respectively).\nThe cell culture medium was discarded immediately at 24 hours post-transfection and replaced by 200 μl of a fresh DMEM medium containing the medicament to be tested (with 10% FBS treated by activated carbon).\n24 h after treatment with the medicament, the cells were lysed with a lysis solution (Cell Culture Lysis buffer, Promega) and centrifuged, and the supernatant was collected. The supernatant was treated with a fluorescence detection kit (Promega) and counted by a fluorescence meter (Ascent Fluoroskan FL reader, Thermo Labsystems, Finland), and the relative intensity of the luciferase was determined. For assaying the β-galactosidase activity used in the experiment as the inner reference (the inner reference calibrating for the transfection efficiency), 50 μl of the supernatant was transferred into a fresh microplate and treated with the Promega kit and read at a wavelength of 405 nm from a microplate reader (Bio-tech Instruments Inc., Winooski, Vt., USA) (Sauerberg, P.; Olsen, G. S.; Jeppesen, L.; Mogensen, J. P. et al., J. Med. Chem., 2007, 50, 1495-1503).\nThe median effective concentration (EC50) of a sample is a concentration at which the sample has 50% pharmacological effect. This value is one of the important parameters for evaluating pharmacological effects of a compound. In the present screening process, the EC50 of a sample was calculated according to the activation of the receptor by the sample at six different concentrations."}, "[1]": {"system": "high fat fodder obese C57BL/6J mice", "assay": "Oral glucose tolerance test in obese mice", "assay_type": "in vivo", "conditions": "FIG. 2, in words", "experimental": "The abscissa represents blood-sampling time points, 0 min, 30 min, 60 min, 120 min after orally given with glucose; the ordinate represents the corresponding blood glucose level (mmol/L).\n(§1) 3 week-old male C57BL/6J mice were chosen as experiment animals, 15 of which were randomly selected to feed with a standard fodder, and the remains were allowed to feed with a high fat fodder, with each of the mice being marked by ear-cutting. The body weights and fodder intake of the mice were weighed every week. […] After the administration of the inventive compounds for four weeks, the effects of the medicaments on the levels of blood lipid and blood glucose, body weight, and fodder intake in the animals were observed, while a glucose tolerance test was performed to investigate the effects of the medicaments on the glucose tolerance in the animals."}, "[2]": {"system": "high fat fodder obese C57BL/6J mice", "assay": "High fat fodder obese mice: body weight and food intake", "assay_type": "in vivo", "excerpt": "as §1"}, "[3]": {"system": "high fat fodder obese C57BL/6J mice", "assay": "High fat fodder obese mice: levels of blood lipid and blood glucose", "assay_type": "in vivo", "parameters": "HDL / GLU / TC / TG: unit not given here", "conditions": "for GLU / HDL / TG / TC: mean ± s, n 5", "excerpt": "as §1, with “[…],” for “After the administration of the inventive compounds for four weeks,”"}, "[4]": {"conditions": "2 weeks administration, 3.3 mg/kg"}, "[5]": {"conditions": "2 weeks administration, 10 mg/kg"}, "[6]": {"conditions": "4 weeks administration, 3.3 mg/kg"}, "[7]": {"conditions": "4 weeks administration, 10 mg/kg"}}}
{"smiles": "Cc1cc(SCC(=O)O)c(C)cc1OC(c1ccccc1)c1nn(-c2ccc(C(F)(F)F)cc2)c(=O)n1C", "note": "(stereo not drawn) [Compound A-11, 2-(2,5-dimethyl-4-(1-(3-(4-methyl-5-oxo-1-(4-trifluoromethyl-phenyl)-4,5-dihydrogen-1H-1,2,4-triazolyl))-benzyloxy)-phenylthio)-acetic acid]", "values": [{"measurement": "EC50", "setting": "PPARδ", "value": "< 1", "unit": "nM"}, {"measurement": "glucose tolerance in the obese animals", "setting": "[1]", "value": "significantly improve the glucose tolerance"}, {"measurement": "Food intake", "setting": "[2]; column 1, 3.3 mg/kg", "value": 6.0, "unit": "g"}, {"measurement": "Food intake", "setting": "[2]; column 1, 10 mg/kg", "value": 7.2, "unit": "g"}, {"measurement": "Food intake", "setting": "[2]; column 2, 3.3 mg/kg", "value": 5.0, "unit": "g"}, {"measurement": "Food intake", "setting": "[2]; column 2, 10 mg/kg", "value": 5.2, "unit": "g"}, {"measurement": "Food intake", "setting": "[2]; column 3, 3.3 mg/kg", "value": 5.8, "unit": "g"}, {"measurement": "Food intake", "setting": "[2]; column 3, 10 mg/kg", "value": 6.0, "unit": "g"}, {"measurement": "Food intake", "setting": "[2]; column 4, 3.3 mg/kg", "value": 6.2, "unit": "g"}, {"measurement": "Food intake", "setting": "[2]; column 4, 10 mg/kg", "value": 6.4, "unit": "g"}, {"measurement": "Food intake", "setting": "[2]; column 5, 3.3 mg/kg", "value": 6.9, "unit": "g"}, {"measurement": "Food intake", "setting": "[2]; column 5, 10 mg/kg", "value": 6.9, "unit": "g"}, {"measurement": "effect on the food intake of the animals", "setting": "[2]; in words", "value": "no significant effect"}, {"measurement": "body weight of the animals", "setting": "[2]; in words, Table 4 and FIG. 1", "value": "significantly decrease"}, {"measurement": "GLU", "setting": "[3]; [4]", "value": "8.85 ± 2.13"}, {"measurement": "HDL", "setting": "[3]; [4]", "value": "3.25 ± 1.29"}, {"measurement": "TG", "setting": "[3]; [4]", "value": "0.21 ± 0.08"}, {"measurement": "GLU", "setting": "[3]; [5]", "value": "6.51 ± 1.61"}, {"measurement": "HDL", "setting": "[3]; [5]", "value": "2.39 ± 1.36"}, {"measurement": "TC", "setting": "[3]; [5]", "value": "4.51 ± 0.37"}, {"measurement": "TG", "setting": "[3]; [5]", "value": "0.16 ± 0.06"}, {"measurement": "GLU", "setting": "[3]; [6]", "value": "7.61 ± 0.5"}, {"measurement": "HDL", "setting": "[3]; [6]", "value": "3.83 ± 0.1"}, {"measurement": "TC", "setting": "[3]; [6]", "value": "5.84 ± 0.21"}, {"measurement": "TG", "setting": "[3]; [6]", "value": "0.12 ± 0.05"}, {"measurement": "GLU", "setting": "[3]; [7]", "value": "6.93 ± 0.3"}, {"measurement": "HDL", "setting": "[3]; [7]", "value": "2.84 ± 1.09"}, {"measurement": "TC", "setting": "[3]; [7]", "value": "5.28 ± 0.48"}, {"measurement": "TG", "setting": "[3]; [7]", "value": "0.15 ± 0.05"}, {"measurement": "levels of TG and GLU in the sera from the model animals", "setting": "[3]; in words", "value": "significantly decrease"}]}
